Experimental data published in ChEMBL document CHEMBL5131473, “One-pot synthesis of oxoaporphines as potent antitumor agents and investigation of their mechanisms of actions” (Eur J Med Chem, 2022).
Active and inactive are the calls of the source. No cut-off for these calls is given here.

Tests used:
T-24 [1] = experiment: Induction of apoptosis in human T24 cells assessed as viable cells at 0.5 uM incubated for 24 hrs by Annexin-V/PI staining based flow cytometry analysis (reference value: 94.3 %); format: functional; details: read-out: Activity
T-24 [2] = experiment: Induction of apoptosis in human T24 cells assessed as late apoptotic cells at 0.5 uM incubated for 24 hrs by Annexin-V/PI staining based flow cytometry analysis (reference value: 0.543 %); format: functional
T-24 [3] = experiment: Induction of cell cycle arrest in human T24 cells assessed as increase in Cyclin B expression at 0.5 to 1 uM incubated for 24 hrs by chemiluminescence based Western blotting analysis; format: functional; details: dose 0.5-1 µM, DDE = dose-dependent effect
T-24 [4] = experiment: Induction of apoptosis in human T24 cells assessed as condensation of nuclei at 0.5 uM by Hoechst33258 staining based fluorescence microscopy; format: functional, cell-based
T-24 [5] = experiment: Induction of mitochondrial membrane potential dysfunction in human T24 cells assessed as depolarised cells at 0.5 uM incubated for 24 hrs by JC-1 staining based flow cytometry (reference value: 6.20%); format: functional
T-24 [6] = experiment: Potency index, ratio of oxoaporphine IC50 to test compound IC50 for anticancer activity against human T24 cells; format: functional
T-24 [7] = experiment: Induction of cell cycle arrest in human T24 cells assessed as increase in CDK1 expression at 0.5 to 1 uM incubated for 24 hrs by chemiluminescence based Western blotting analysis; format: functional; details: dose 0.5-1 µM, DDE = dose-dependent effect
T-24 [8] = experiment: Induction of apoptosis in human T24 cells assessed as early apoptotic cells at 0.5 uM incubated for 24 hrs by Annexin-V/PI staining based flow cytometry analysis (reference value: 3.27 %); format: functional
T-24 [9] = experiment: Induction of DNA damage in human T24 cells assessed as increase in […] p53 expression at 0.5 to 1 uM incubated for 24 hrs by Western blot analysis; format: functional, cell-based; details: dose 0.5-1 µM
T-24 [10] = experiment: Induction of apoptosis in human T24 cells assessed as condensed chromatin at 0.5 uM by Hoechst33258 staining based fluorescence microscopy; format: functional, cell-based
T-24 [11] = experiment: Induction of apoptosis in human T24 cells assessed as condensed chromatin at 10 uM by Hoechst33258 staining based fluorescence microscopy; format: functional, cell-based
T-24 [12] = experiment: Inhibition of cell migration in human T24 cells assessed as recovery of wound area at 5 uM measured after 24 hrs by wound healing assay based fluorescence microscopy; format: functional; parameters: scale not given: the % may be the effect or the level left
T-24 [13] = experiment: Induction of apoptosis in human T24 cells assessed as increase in caspase 9 activity at 10 uM (Rvb= 7.2%); format: functional
T-24 [14] = experiment: Induction of apoptosis in human T24 cells assessed as late apoptotic cells at 15 uM incubated for 24 hrs by Annexin-V/PI staining based flow cytometry analysis (reference value: 0.543 %); format: functional
T-24 [15] = experiment: Induction of mitochondrial membrane potential dysfunction in human T24 cells assessed as mitochondrial fragment condensation at 10 to 15 uM by mito-tracker green dye based fluorescence microscopy; format: functional, cell-based; details: dose 10-15 µM
T-24 [16] = experiment: Induction of mitochondrial mediated apoptosis in human T24 cells assessed as decrease in Bcl-2 protein expression at 10 to 15 uM incubated for 24 hrs by Western blotting analysis; format: functional, cell-based; details: dose 10-15 µM
T-24 [17] = experiment: Induction of mitochondrial membrane potential dysfunction in human T24 cells assessed as disappearance of cristae at 10 uM incubated for 24 hrs by TEM analysis; format: functional, cell-based
T-24 [18] = experiment: Induction of apoptosis in human T24 cells assessed as viable cells at 20 uM incubated for 24 hrs by Annexin-V/PI staining based flow cytometry analysis (reference value: 94.3 %); format: functional; details: read-out: Activity
T-24 [19] = experiment: Cytotoxicity against human T24 cells assessed as decrease in cell viability at 10 uM by MTT assay; format: functional, cell-based; details: TDE = time-dependent effect
T-24 [20] = experiment: Induction of cell cycle arrest in human T24 cells assessed as increase in Cyclin B expression at 10 to 15 uM incubated for 24 hrs by chemiluminescence based Western blotting analysis; format: functional; details: dose 10-15 µM, DDE = dose-dependent effect
T-24 [21] = experiment: Inhibition of colony formation in human T24 cells 0.2 to 10 uM incubated for 24 hrs and measured for 10 days; format: functional, cell-based; details: dose 0.2-10 µM
T-24 [22] = experiment: Induction of apoptosis in human T24 cells assessed as contracted small fragmented nuclei at 10 uM by Hoechst33258 staining based fluorescence microscopy; format: functional, cell-based
T-24 [23] = experiment: Induction of apoptosis in human T24 cells assessed as late apoptotic cells at 10 uM incubated for 24 hrs by Annexin-V/PI staining based flow cytometry analysis (reference value: 0.543 %); format: functional
T-24 [24] = experiment: Induction of mitochondrial mediated apoptosis in human T24 cells assessed as upregulation of apaf-1 expression at 10 to 15 uM incubated for 24 hrs by Western blotting analysis; format: functional, cell-based; details: dose 10-15 µM
T-24 [25] = experiment: Induction of cell cycle arrest in human T24 cells assessed as increase in CDK1 expression at 10 to 15 uM incubated for 24 hrs by chemiluminescence based Western blotting analysis; format: functional; details: dose 10-15 µM, DDE = dose-dependent effect
T-24 [26] = experiment: Induction of cell cycle arrest in human T24 cells assessed as accumulation of cells at G1 phase at 10 uM incubated for 24 hrs by propidium iodide/RNase A staining based flow cytometry analysis (reference value: 51.71 %); format: functional
T-24 [27] = experiment: Induction of cell cycle arrest in human T24 cells assessed as accumulation of cells at S phase at 2 uM incubated for 24 hrs by propidium iodide/RNase A staining based flow cytometry analysis (reference value: 42.47 %); format: functional
T-24 [28] = experiment: Induction of apoptosis in human T24 cells assessed as early apoptotic cells at 6 uM incubated for 24 hrs by Annexin-V/PI staining based flow cytometry analysis (reference value: 3.27 %); format: functional
T-24 [29] = experiment: Induction of apoptosis in human T24 cells assessed as contracted small fragmented nuclei at 2 uM by Hoechst33258 staining based fluorescence microscopy; format: functional, cell-based
[30] = Toxicity in human WI-38 cells assessed as wound closure at 1 uM measured after 24 hrs by fluorescence microscopy based wound healing assay; format: cell-based; details: wi-38, 24 h
T-24 [31] = experiment: Induction of cell cycle arrest in human T24 cells assessed as upregulation of CDK2 expression at 2 to 4 uM incubated for 24 hrs by chemiluminescence based Western blotting analysis; format: functional; details: dose 2-4 µM
T-24 [32] = experiment: Induction of apoptosis in human T24 cells assessed as early apoptotic cells at 4 uM incubated for 24 hrs by Annexin-V/PI staining based flow cytometry analysis (reference value: 3.27 %); format: functional
T-24 [33] = experiment: Induction of Ca2+ production in human T24 cells assessed as increase in intracellular Ca2+ concentration at 2 uM by Fluo3-AM staining based fluorescence microscopic method; format: functional, cell-based
T-24 [34] = experiment: Induction of mitochondrial mediated apoptosis in human T24 cells assessed as decrease in Bcl-2 protein expression at 2 to 4 uM incubated for 24 hrs by Western blotting analysis; format: functional, cell-based; details: dose 2-4 µM
T-24 [35] = experiment: Induction of apoptosis in human T24 cells assessed as necrotic cells at 4 uM incubated for 24 hrs by Annexin-V/PI staining based flow cytometry analysis (reference value: 1.92 %); format: functional
T-24 [36] = experiment: Induction of apoptosis in human T24 cells assessed as viable cells at 6 uM incubated for 24 hrs by Annexin-V/PI staining based flow cytometry analysis (reference value: 94.3 %); format: functional; details: read-out: Activity

Structure (SMILES): O=C1c2ccccc2-c2ccc([N+](=O)[O-])c3ccnc1c23
- viability at 0.5 µM (T-24 [1]): 58.1%
- Activity (T-24 [2]): 5.1%
- Activity (T-24 [3]): Dde
- Activity (T-24 [4]): Active
- Activity (T-24 [5]): 37%
- Ratio IC50 (T-24 [6]): 19
- Activity (T-24 [7]): Dde
- Activity (T-24 [8]): 35.3%
- Activity (T-24 [9]): Active
- Activity (T-24 [10]): Active

Structure (SMILES): O=C1c2ccccc2-c2cccc3ccnc1c23
- Activity (T-24 [11]): Active
- Activity (T-24 [12]): 21.7%
- Activity (T-24 [13]): 24.8%
- Activity (T-24 [14]): 6.56%
- Activity (T-24 [15]): Active
- Activity (T-24 [16]): Active
- Activity (T-24 [17]): Active
- viability at 20 µM (T-24 [18]): 56.2%
- Activity (T-24 [19]): Tde
- Activity (T-24 [20]): Dde
- inhibition (T-24 [21]): Active
- Activity (T-24 [22]): Active
- Activity (T-24 [23]): 3.25%
- Activity (T-24 [24]): Active
- Activity (T-24 [25]): Dde
- Activity (T-24 [26]): 31.45%

Structure (SMILES): O=C1c2cc([N+](=O)[O-])ccc2-c2ccc([N+](=O)[O-])c3ccnc1c23
- Activity (T-24 [27]): 66.71%
- Activity (T-24 [28]): 36.2%
- Activity (T-24 [29]): Active
- Activity [30]: Non-Toxic
- Activity (T-24 [31]): Active
- Activity (T-24 [32]): 32.3%
- Activity (T-24 [33]): Active
- Activity (T-24 [34]): Active
- Activity (T-24 [35]): 2.8%
- viability at 6 µM (T-24 [36]): 54.1%
